Our source for the EC50 values is PMC4260745, “Modulation of A1 and A2B adenosine receptor activity: a new strategy to sensitise glioblastoma stem cells to chemotherapy” (Cell Death & Disease, 2014).

The target of this assay is T1, A2BAR (A2B adenosine receptor) (Homo sapiens, UniProt P29275).
T1 construct: gene ADORA2B
T1 sequence (P29275 1-332): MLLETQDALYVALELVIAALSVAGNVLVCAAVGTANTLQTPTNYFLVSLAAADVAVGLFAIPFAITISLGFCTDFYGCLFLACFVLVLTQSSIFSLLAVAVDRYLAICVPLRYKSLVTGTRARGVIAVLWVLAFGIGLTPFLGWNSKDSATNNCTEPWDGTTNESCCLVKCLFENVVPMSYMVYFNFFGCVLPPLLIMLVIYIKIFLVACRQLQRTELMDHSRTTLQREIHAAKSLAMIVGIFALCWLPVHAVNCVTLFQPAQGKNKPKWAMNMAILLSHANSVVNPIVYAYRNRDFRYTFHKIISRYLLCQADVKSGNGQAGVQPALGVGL
The assay is described as follows: […]GTPγS binding, membranes of U343MG-derived CSCs (endogenous receptor). Format: biochemical.

Take `N#Cc1c(N)nc(SCC(N)=O)c(C#N)c1-c1ccc(OCC2CC2)cc1` [BAY606583, 2-[6-Amino-3,5-dicyano-4-[4-(cyclopropylmethoxy)-phenyl]pyridin-2-ylsulfanyl]acetamide]: the concentration for a half-maximal effect (EC50) came out at 1.9 ± 0.2 nM.
